Experimental findings from EP4069710B1, “PD(I) COMPLEXES, PROCESS FOR THEIR PREPARATION AND USE THEREOF AS ANTITUMOUR AGENTS” (Universita' Ca' Foscari Venezia, priority 2019, dated 2021) are described below.

The structures appear in SMILES notation.

Type in all cases: cell-based
Experiment [1] relates to A2780cis. The experiment in a line: Antiproliferative activity, cell viability by CellTiter-Glo after 96 hours. Conditions: A2780cis (ovarian cancer), mean ± standard deviation of triplicate measurements. The protocol: (§1) Tecan analyser, mod. Infinite® M1000.
(§2) Tests were performed for the purpose of determining the inhibitory concentration (IC50) of a compound of the invention towards tumour cell lines and on a control cell line; for comparative purposes, the same tests were performed with the cisplatin compound.
(§3) The tested cell lines were: A2780, A2780cis, OVCAR5, OVCAR3 e KURAMOCHI (ovarian cancer), A549 (lung cancer), HeLa (cervical cancer), DLD1 (colon cancer) and MRC-5 (control; lung fibroblasts). The mother solutions were obtained in dimethyl sulfoxide for the Pd(I) compound and in H2O for cisplatin.
(§4) The cells were kept, according to the protocols indicated by the suppliers, at 37 °C in an atmosphere containing 5% carbon dioxide. About 500 cells were plated on 96 different well-plates and kept under such conditions for 96 hours.
(§5) The viability of the cells was determined, after treatment of the cells with a 1:1 CellTiter-Glo® solution (registered trademark of Promega Corp., Madison, Wisconsin, USA) and DPBS, with the Tecan Infinite® M1000 instrument. The IC50 values were calculated by the response curves to the dose. The means and standard deviations were obtained from triplicate measurements.
(In ATP-based viability assays light output follows the ATP content of the culture.)

The subject of experiment [2] is DLD1. Described as above. The note with it: DLD1 (colon cancer), mean ± standard deviation of triplicate measurements. The protocol:
as §1, §2, §3, §4, §5

The test system of experiment [3] is Kuramochi. The experiment is described as above. The note with it: Kuramochi (ovarian cancer), mean ± standard deviation of triplicate measurements. The procedure:
as §1, §2, §3, §4, §5

Experiment [4] concerns OVCAR3. The description is as above. The note with it: OVCAR3 (ovarian cancer), mean ± standard deviation of triplicate measurements. The procedure: as §1, §2, §3, §4, §5
Experiment [5] concerns OVCAR5. Described as above. Conditions: OVCAR5 (ovarian cancer), mean ± standard deviation of triplicate measurements. The protocol:
as §1, §2, §3, §4, §5

The subject of experiment [6] is MRC-5. Briefly: Antiproliferative activity on control cell line, cell viability by CellTiter-Glo after 96 hours. Conditions: MRC-5 (control; lung fibroblasts), mean ± standard deviation of triplicate measurements. The procedure: as §1, §2, §3, §4, §5

One may read the IC50 as the point on the concentration scale where inhibition reaches its midpoint. A higher IC50 goes with weaker potency. As to `N.N.[Cl][Pt][Cl]` [Cisplatin, cis-diamine-dichloroplatinum(II)], the IC50 in experiment [1] was 43 ± 3 µM; in experiment [2], 4.2 ± 0.5 µM; in experiment [3] it was 1.7 ± 0.3 µM; in experiment [4] it was 2.2 ± 0.1 µM; in experiment [5], 5.2 ± 0.8 µM; in experiment [6] it was 14 ± 1 µM.
